Assay results taken from patent publication US12435059B2, “AMP-activated protein kinase inhibitors and methods of making and using the same” (The Regents of the University of Colorado, priority 2019, dated 2025).
Like-named read-outs stand apart in the source and are kept apart here.

Experiments:
Experiment in all cases: biochemical
Assay type in all cases: binding
468 kinases [1] = target: 468 kinases (Homo sapiens, UniProt Q08881); settings: ITK; read-out: % Inhibition @ 100 nM
468 kinases [2] = target: 468 kinases (Homo sapiens, UniProt Q9H093); settings: SNARK; read-out: % Inhibition @ 100 nM
468 kinases [3] = target: 468 kinases (Homo sapiens, UniProt O14730); settings: RIOK3; read-out: % Inhibition @ 100 nM
468 kinases [4] = target: 468 kinases (Homo sapiens, UniProt P48729); settings: CSNK1A1; read-out: % Inhibition @ 100 nM
468 kinases [5] = target: 468 kinases (Homo sapiens, UniProt Q9BX84); settings: TRPM6; read-out: % Inhibition @ 100 nM
468 kinases [6] = target: 468 kinases (Homo sapiens, UniProt Q00536); settings: PCTK1; read-out: % Inhibition @ 100 nM
468 kinases [7] = target: 468 kinases (Homo sapiens, UniProt Q15349); settings: read-out: % Inhibition @ 100 nM
468 kinases [8] = target: 468 kinases (Homo sapiens, UniProt Q86YV6); settings: MYLK4; read-out: % Inhibition @ 100 nM
468 kinases [9] = target: 468 kinases (Homo sapiens, UniProt Q9H2K8); settings: TAOK3; read-out: % Inhibition @ 100 nM
468 kinases [10] = target: 468 kinases (Homo sapiens, UniProt Q14680); settings: MELK; read-out: % Inhibition @ 100 nM
468 kinases [11] = target: 468 kinases (Homo sapiens, UniProt O96013); settings: PAK4; read-out: % Inhibition @ 100 nM
468 kinases [12] = target: 468 kinases (Homo sapiens, UniProt Q9UF33); settings: EPHA6; read-out: % Inhibition @ 100 nM
468 kinases [13] = target: 468 kinases (Homo sapiens, UniProt Q15303); settings: ERBB4; read-out: % Inhibition @ 100 nM
468 kinases [14] = target: 468 kinases (Homo sapiens, UniProt O15530); settings: PDPK1; read-out: % Inhibition @ 100 nM
468 kinases [15] = target: 468 kinases (Homo sapiens, UniProt P36896); settings: ACVR1B; read-out: % Inhibition @ 100 nM
468 kinases [16] = target: 468 kinases (Homo sapiens, UniProt Q9UM73); settings: ALK; read-out: % Inhibition @ 100 nM
468 kinases [17] = target: 468 kinases (Homo sapiens, UniProt Q6ZWH5); settings: NEK10; read-out: % Inhibition @ 100 nM
468 kinases [18] = target: 468 kinases (Homo sapiens, UniProt P09769); settings: FGR; read-out: % Inhibition @ 100 nM
468 kinases [19] = target: 468 kinases (Homo sapiens, UniProt P36888, R834Q); settings: FLT3(R834Q); read-out: % Inhibition @ 100 nM
468 kinases [20] = target: 468 kinases (Homo sapiens, UniProt Q86UE8); settings: TLK2; read-out: % Inhibition @ 100 nM
468 kinases [21] = target: 468 kinases (Homo sapiens, UniProt P53667); settings: LIMK1; read-out: % Inhibition @ 100 nM
468 kinases [22] = target: 468 kinases (Homo sapiens, UniProt Q16659); settings: ERK3; read-out: % Inhibition @ 100 nM
468 kinases [23] = target: 468 kinases (Homo sapiens, UniProt Q9H3Y6); settings: SRMS; read-out: % Inhibition @ 100 nM
468 kinases [24] = target: 468 kinases (Homo sapiens, UniProt Q13237); settings: PRKG2; read-out: % Inhibition @ 100 nM
468 kinases [25] = target: 468 kinases (Homo sapiens, UniProt P20794); settings: MAK; read-out: % Inhibition @ 100 nM
468 kinases [26] = target: 468 kinases (Homo sapiens, UniProt O43353); settings: RIPK2; read-out: % Inhibition @ 100 nM
468 kinases [27] = target: 468 kinases (Homo sapiens, UniProt Q7L7X3); settings: TAOK1; read-out: % Inhibition @ 100 nM
468 kinases [28] = target: 468 kinases (Homo sapiens, UniProt Q96SB4); settings: SRPK1; read-out: % Inhibition @ 100 nM
468 kinases [29] = target: 468 kinases (Homo sapiens, UniProt O60674); settings: JAK2( JH1domain-catalytic); read-out: % Inhibition @ 100 nM
468 kinases [30] = target: 468 kinases (Homo sapiens, UniProt P54764); settings: EPHA4; read-out: % Inhibition @ 100 nM
468 kinases [31] = target: 468 kinases (Homo sapiens, UniProt P22607); settings: FGFR3; read-out: % Inhibition @ 100 nM
468 kinases [32] = target: 468 kinases (Homo sapiens, UniProt P16591); settings: FER; read-out: % Inhibition @ 100 nM
468 kinases [33] = target: 468 kinases (Homo sapiens, UniProt Q8TDR2); settings: STK35; read-out: % Inhibition @ 100 nM

CCN(CC)CCNC(=O)c1c(C)[nH]c(/C=C2\C(=O)Nc3ccc(CCC(N)=O)cc32)c1C [Compound No. 16, (Z)-5-((5-(3-Amino-3-oxopropyl)-2-oxoindolin-3-ylidene)methyl)-N-(2-(diethylamino)ethyl)-2,4-dimethyl-1H-pyrrole-3-carboxamide]
inhibition at 0.1 µM (468 kinases [1]): 12%
inhibition at 0.1 µM (468 kinases [2]): 81%
inhibition at 0.1 µM (468 kinases [3]): 100%
inhibition at 0.1 µM (468 kinases [4]): 27%
inhibition at 0.1 µM (468 kinases [5]): 29%
inhibition at 0.1 µM (468 kinases [6]): 19%
inhibition at 0.1 µM (468 kinases [7]; RSK3(Kin.Dom.1-N-terminal)): 7%
inhibition at 0.1 µM (468 kinases [7]; RSK3(Kin.Dom.2-C-terminal)): 19%
inhibition at 0.1 µM (468 kinases [8]): 24%
inhibition at 0.1 µM (468 kinases [9]): 56%
inhibition at 0.1 µM (468 kinases [10]): 16%
inhibition at 0.1 µM (468 kinases [11]): 0%
inhibition at 0.1 µM (468 kinases [12]): 0%
inhibition at 0.1 µM (468 kinases [13]): 6%
inhibition at 0.1 µM (468 kinases [14]): 3%
inhibition at 0.1 µM (468 kinases [15]): 0%
inhibition at 0.1 µM (468 kinases [16]): 54%
inhibition at 0.1 µM (468 kinases [17]): 20%
inhibition at 0.1 µM (468 kinases [18]): 32%
inhibition at 0.1 µM (468 kinases [19]): 55%
inhibition at 0.1 µM (468 kinases [20]): 23%
inhibition at 0.1 µM (468 kinases [21]): 17%
inhibition at 0.1 µM (468 kinases [22]): 9%
inhibition at 0.1 µM (468 kinases [23]): 27%
inhibition at 0.1 µM (468 kinases [24]): 36%
inhibition at 0.1 µM (468 kinases [25]): 4%
inhibition at 0.1 µM (468 kinases [26]): 18%
inhibition at 0.1 µM (468 kinases [27]): 53%
inhibition at 0.1 µM (468 kinases [28]): 78%
inhibition at 0.1 µM (468 kinases [29]): 76%
inhibition at 0.1 µM (468 kinases [30]): 0%
inhibition at 0.1 µM (468 kinases [31]): 11%
inhibition at 0.1 µM (468 kinases [32]): 0%
inhibition at 0.1 µM (468 kinases [33]): 15%

CCN(CC)CCNC(=O)c1c(C)[nH]c(/C=C2\C(=O)Nc3ccc(CCO)cc32)c1C [Compound No. 10, (Z)—N-(2-(Diethylamino)ethyl)-5-((5-(2-hydroxyethyl)-2-oxoindolin-3-ylidene)methyl)-2,4-dimethyl-1H-pyrrole-3-carboxamide]
inhibition at 0.1 µM (468 kinases [1]): 12%
inhibition at 0.1 µM (468 kinases [2]): 80%
inhibition at 0.1 µM (468 kinases [3]): 93.9%
inhibition at 0.1 µM (468 kinases [4]): 14%
inhibition at 0.1 µM (468 kinases [5]): 0%
inhibition at 0.1 µM (468 kinases [6]): 0%
inhibition at 0.1 µM (468 kinases [7]; RSK3(Kin.Dom.1-N-terminal)): 13%
inhibition at 0.1 µM (468 kinases [7]; RSK3(Kin.Dom.2-C-terminal)): 0%
inhibition at 0.1 µM (468 kinases [8]): 32%
inhibition at 0.1 µM (468 kinases [9]): 31%
inhibition at 0.1 µM (468 kinases [10]): 4%
inhibition at 0.1 µM (468 kinases [11]): 0%
inhibition at 0.1 µM (468 kinases [12]): 0%
inhibition at 0.1 µM (468 kinases [13]): 15%
inhibition at 0.1 µM (468 kinases [14]): 11%
inhibition at 0.1 µM (468 kinases [15]): 0%
inhibition at 0.1 µM (468 kinases [16]): 29%
inhibition at 0.1 µM (468 kinases [17]): 10%
inhibition at 0.1 µM (468 kinases [18]): 16%
inhibition at 0.1 µM (468 kinases [19]): 56%
inhibition at 0.1 µM (468 kinases [20]): 0%
inhibition at 0.1 µM (468 kinases [21]): 0%
inhibition at 0.1 µM (468 kinases [22]): 0%
inhibition at 0.1 µM (468 kinases [23]): 13%
inhibition at 0.1 µM (468 kinases [24]): 0%
inhibition at 0.1 µM (468 kinases [25]): 0%
inhibition at 0.1 µM (468 kinases [26]): 0%
inhibition at 0.1 µM (468 kinases [27]): 22%
inhibition at 0.1 µM (468 kinases [28]): 60%
inhibition at 0.1 µM (468 kinases [29]): 72%
inhibition at 0.1 µM (468 kinases [30]): 0%
inhibition at 0.1 µM (468 kinases [31]): 52%
inhibition at 0.1 µM (468 kinases [32]): 12%
inhibition at 0.1 µM (468 kinases [33]): 21%
